Publication PMC12289921 (Nature Communications, 2025)

Molecular target: PPIL4 with GFP-CRBN-DDB1∆B (Homo sapiens, UniProt Q8WUA2+Q96SW2)
Assay: TR-FRET ternary complex formation
Format: binding

PPIL4 with GFP-CRBN-DDB1∆B, sequence (Q96SW2 whole entry): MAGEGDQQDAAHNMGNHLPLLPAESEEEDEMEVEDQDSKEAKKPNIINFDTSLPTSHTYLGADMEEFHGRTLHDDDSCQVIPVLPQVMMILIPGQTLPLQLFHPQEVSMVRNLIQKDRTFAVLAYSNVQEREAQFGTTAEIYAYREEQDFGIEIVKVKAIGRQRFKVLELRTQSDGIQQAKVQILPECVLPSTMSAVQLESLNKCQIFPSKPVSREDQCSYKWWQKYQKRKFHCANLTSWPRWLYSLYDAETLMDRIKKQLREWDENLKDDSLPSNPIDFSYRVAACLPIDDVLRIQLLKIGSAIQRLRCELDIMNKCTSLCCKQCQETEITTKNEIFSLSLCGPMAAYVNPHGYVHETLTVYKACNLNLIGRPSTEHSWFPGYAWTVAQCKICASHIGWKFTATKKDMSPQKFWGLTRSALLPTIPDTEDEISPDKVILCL
PPIL4 with GFP-CRBN-DDB1∆B, sequence (Q8WUA2 whole entry): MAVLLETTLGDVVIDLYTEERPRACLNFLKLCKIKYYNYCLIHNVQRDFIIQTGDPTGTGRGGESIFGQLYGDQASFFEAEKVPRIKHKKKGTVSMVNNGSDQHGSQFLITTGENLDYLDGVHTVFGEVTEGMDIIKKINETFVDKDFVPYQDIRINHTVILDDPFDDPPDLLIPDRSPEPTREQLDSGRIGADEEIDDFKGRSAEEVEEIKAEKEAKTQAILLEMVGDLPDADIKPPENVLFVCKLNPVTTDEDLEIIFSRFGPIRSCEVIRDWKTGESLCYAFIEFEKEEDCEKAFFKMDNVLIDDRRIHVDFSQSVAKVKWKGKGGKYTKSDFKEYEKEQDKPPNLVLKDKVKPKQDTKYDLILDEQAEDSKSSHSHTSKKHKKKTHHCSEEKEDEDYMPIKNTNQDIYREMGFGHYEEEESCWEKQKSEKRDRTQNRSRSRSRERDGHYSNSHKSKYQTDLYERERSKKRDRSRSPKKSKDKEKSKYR
PPIL4 with GFP-CRBN-DDB1∆B, sequence (Q16531 1-395 partner): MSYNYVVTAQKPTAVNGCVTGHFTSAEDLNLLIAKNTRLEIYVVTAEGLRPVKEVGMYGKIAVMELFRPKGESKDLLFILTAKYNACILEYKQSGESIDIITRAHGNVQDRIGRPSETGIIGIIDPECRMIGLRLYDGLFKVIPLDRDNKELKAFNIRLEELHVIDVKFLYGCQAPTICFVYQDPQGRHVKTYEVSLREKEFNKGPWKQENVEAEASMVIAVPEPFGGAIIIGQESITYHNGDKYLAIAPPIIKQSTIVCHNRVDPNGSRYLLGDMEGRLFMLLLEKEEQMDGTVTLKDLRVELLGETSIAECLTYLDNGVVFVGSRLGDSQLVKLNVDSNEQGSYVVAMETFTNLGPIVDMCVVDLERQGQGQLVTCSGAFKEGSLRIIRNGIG
PPIL4 with GFP-CRBN-DDB1∆B, sequence (Q16531 706-1140 partner): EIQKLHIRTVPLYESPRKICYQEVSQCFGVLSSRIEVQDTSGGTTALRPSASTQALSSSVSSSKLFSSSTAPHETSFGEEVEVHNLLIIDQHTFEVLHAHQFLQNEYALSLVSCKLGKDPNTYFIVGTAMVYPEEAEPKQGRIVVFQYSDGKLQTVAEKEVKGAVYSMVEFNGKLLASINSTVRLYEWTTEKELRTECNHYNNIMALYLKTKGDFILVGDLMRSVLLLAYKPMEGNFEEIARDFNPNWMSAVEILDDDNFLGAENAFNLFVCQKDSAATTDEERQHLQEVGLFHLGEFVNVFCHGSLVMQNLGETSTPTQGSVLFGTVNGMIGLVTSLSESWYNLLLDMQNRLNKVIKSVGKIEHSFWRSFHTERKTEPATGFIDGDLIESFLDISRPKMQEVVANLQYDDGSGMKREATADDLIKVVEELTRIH

COc1cscc1-c1cn([C@H]2CCC(=O)NC2=O)nn1 [FPFT-2216]
EC50: 1050 nM
